Reference: patent US10806142B2, “2-amino-5-ketoxime-pyrimidine derivatives and their use for controlling undesired plant growth” (Bayer CropScience Aktiengesellschaft, priority 2015, dated 2020)

Legend:
Abutilon theophrasti [1] = experiment: Post-emergence herbicidal effect; format: in vivo; details: visual score after about 3 weeks
Description: (§1) [table] 2. Post-Emergence Herbicidal Effect and Crop Plant Compatibility Seeds of monocotyledonous and dicotyledonous weed and crop plants are laid out in sandy loam in wood-fiber pots, covered with soil and cultivated in a greenhouse under good growth conditions. 2 to 3 weeks after sowing, the test plants are treated at the one-leaf stage. The compounds of the invention, formulated in the form of wettable powders (WP) or as emulsion concentrates (EC), are then sprayed onto the green parts of the plants as aqueous suspension or emulsion at a water application rate equating to 600 to 800 L/ha with addition of 0.2% wetting agent. After the trial plants have been left to stand in a greenhouse under optimal growth conditions for about 3 weeks, the efficacy of the formulations is scored visually in comparison to untreated controls (herbicidal action in percent (%): 100% efficacy=the plants have died, 0% efficacy=like control plants).

Polygpnum convolvulus [2] = experiment: Post-emergence herbicidal effect; format: in vivo; details: visual score after about 3 weeks
Description: as §1

Cyperus esculentus = experiment: Post-emergence herbicidal effect; format: in vivo; details: dosage 320 g a.i./ha, visual score after about 3 weeks
Description: as §1

Lolium multiflorum = experiment: Post-emergence herbicidal effect; format: in vivo; details: dosage 320 g a.i./ha, visual score after about 3 weeks
Description: as §1

Stellaria media [3] = experiment: Post-emergence herbicidal effect; format: in vivo; details: visual score after about 3 weeks
Description: as §1

Viola tricolor [4] = experiment: Post-emergence herbicidal effect; format: in vivo; details: visual score after about 3 weeks
Description: as §1

Ipomoea purpurea = experiment: Post-emergence herbicidal effect; format: in vivo; details: visual score after about 3 weeks
Description: as §1

Amaranthus retroflexus [5] = experiment: Post-emergence herbicidal effect; format: in vivo; details: visual score after about 3 weeks
Description: as §1

Matricaria inodora [6] = experiment: Post-emergence herbicidal effect; format: in vivo; details: dosage 320 g a.i./ha, visual score after about 3 weeks
Description: as §1

[7] = logp (HCOOH), physicochemical characterization; details: HCOOH (formic acid)
Echinochloa crus-galli = experiment: Pre-emergence herbicidal effect; format: in vivo
Text: (§2) 1. Pre-Emergence Herbicidal Effect and Crop Plant Compatibility Seeds of monocotyledonous and dicotyledonous weed plants and crop plants are laid out in wood-fiber pots in sandy loam and covered with soil. The compounds of the invention, formulated in the form of wettable powders (WP) or as emulsion concentrates (EC), are then applied to the surface of the covering soil as aqueous suspension or emulsion at a water application rate equating to 600 to 800 L/ha with addition of 0.2% wetting agent. After the treatment, the pots are placed in a greenhouse and kept under good growth conditions for the trial plants. The damage to the trial plants is scored visually after a trial duration of 3 weeks by comparison with untreated controls (herbicidal activity in percent (%): 100% efficacy=the plants have died, 0% efficacy=like control plants). [table]

Polygpnum convolvulus [8] = experiment: Pre-emergence herbicidal effect; format: in vivo
Text: as §2

Veronica persica = experiment: Pre-emergence herbicidal effect; format: in vivo
Text: as §2

Stellaria media [9] = experiment: Pre-emergence herbicidal effect; format: in vivo
Text: as §2

Viola tricolor [10] = experiment: Pre-emergence herbicidal effect; format: in vivo
Text: as §2

Setaria viridis [11] = experiment: Pre-emergence herbicidal effect; format: in vivo
Text: as §2

Amaranthus retroflexus [12] = experiment: Pre-emergence herbicidal effect; format: in vivo
Text: as §2

Matricaria inodora [13] = experiment: Pre-emergence herbicidal effect; format: in vivo
Text: as §2

Setaria viridis [14] = experiment: Post-emergence herbicidal effect; format: in vivo; details: visual score after about 3 weeks
Description: as §1

Abutilon theophrasti [15] = experiment: Pre-emergence herbicidal effect; format: in vivo; details: dosage 320 g a.i./ha
Text: as §2

Avena fatua = experiment: Pre-emergence herbicidal effect; format: in vivo; details: dosage 320 g a.i./ha
Text: as §2

Alopecurus myosuroides = experiment: Pre-emergence herbicidal effect; format: in vivo
Text: as §2

In the case of `C/C(=N/Oc1ccc(F)cc1)c1cnc(N[C@H]2c3cc(C)ccc3C[C@@H]2C)nc1` [Compound 1.101b, N-[(1R,2S)-2,6-dimethyl-2,3-dihydro-1H-inden-1-yl]-5-[(1Z)-N-(4-fluorophenoxy)ethanimidoyl]pyrimidine-2-amine], the “Herbicidal activity against ABUTH” value (Abutilon theophrasti [1]; dosage 80 g a.i./ha) was 80%, the “Herbicidal activity against ABUTH” value (Abutilon theophrasti [1]; dosage 320 g a.i./ha) was 100% and the “Herbicidal activity against POLCO” value (Polygpnum convolvulus [2]; dosage 80 g a.i./ha) was 80%. For the same compound, the “Herbicidal activity against POLCO” value (Polygpnum convolvulus [2]; dosage 320 g a.i./ha) was 100%, the “Herbicidal activity against CYPES” value (Cyperus esculentus) was 100% and the “Herbicidal activity against LOLMU” value (Lolium multiflorum) was 100%. The “Herbicidal activity against STEME” value (Stellaria media [3]; dosage 80 g a.i./ha) was 80%, the “Herbicidal activity against STEME” value (Stellaria media [3]; dosage 320 g a.i./ha) was 90% and the “Herbicidal activity against VIOTR” value (Viola tricolor [4]; dosage 80 g a.i./ha) was 90%. The “Herbicidal activity against VIOTR” value (Viola tricolor [4]; dosage 320 g a.i./ha) was 90%, the “Herbicidal activity against PHBPU” value (Ipomoea purpurea; dosage 320 g a.i./ha) was 100% and the “Herbicidal activity against AMARE” value (Amaranthus retroflexus [5]; dosage 320 g a.i./ha) was 90%. For the same compound, the “Herbicidal activity against MATIN” value (Matricaria inodora [6]) was 100%, the chromatographic logP [7] was 5.56 and the “Herbicidal activity against ECHCG” value (Echinochloa crus-galli; dosage 320 g a.i./ha) was 90%. The “Herbicidal activity against POLCO” value (Polygpnum convolvulus [8]; dosage 320 g a.i./ha) was 100%, the “Herbicidal activity against VERPE” value (Veronica persica; dosage 80 g a.i./ha) was 100% and the “Herbicidal activity against VERPE” value (Veronica persica; dosage 320 g a.i./ha) was 100%. For the same compound, the “Herbicidal activity against STEME” value (Stellaria media [9]; dosage 80 g a.i./ha) was 100%, the “Herbicidal activity against STEME” value (Stellaria media [9]; dosage 320 g a.i./ha) was 100% and the “Herbicidal activity against VIOTR” value (Viola tricolor [10]; dosage 80 g a.i./ha) was 90%. For the same compound, the “Herbicidal activity against VIOTR” value (Viola tricolor [10]; dosage 320 g a.i./ha) was 100%, the “Herbicidal activity against SETVI” value (Setaria viridis [11]; dosage 320 g a.i./ha) was 100% and the “Herbicidal activity against AMARE” value (Amaranthus retroflexus [12]; dosage 80 g a.i./ha) was 90%. For the same compound, the “Herbicidal activity against AMARE” value (Amaranthus retroflexus [12]; dosage 320 g a.i./ha) was 100%, the “Herbicidal activity against MATIN” value (Matricaria inodora [13]; dosage 80 g a.i./ha) was 80% and the “Herbicidal activity against MATIN” value (Matricaria inodora [13]; dosage 320 g a.i./ha) was 100%.

With `CC/C(=N\O)c1cnc(N[C@H]2c3cc(C)ccc3C[C@@H]2C)nc1CC` [Compound 1.40a, N-[(1R,2S)-2,6-Dimethyl-2,3-dihydro-1H-inden-1-yl]-4-ethyl-5-[(1E)-N-hydroxypropanimidoyl]pyrimidine-2-amine] the “Herbicidal activity against VIOTR” value (Viola tricolor [4]; dosage 80 g a.i./ha) was 90%, the “Herbicidal activity against VIOTR” value (Viola tricolor [4]; dosage 320 g a.i./ha) was 90% and the “Herbicidal activity against PHBPU” value (Ipomoea purpurea; dosage 80 g a.i./ha) was 80%. For the same compound, the “Herbicidal activity against PHBPU” value (Ipomoea purpurea; dosage 320 g a.i./ha) was 100%, the “Herbicidal activity against SETVI” value (Setaria viridis [14]; dosage 80 g a.i./ha) was 100% and the “Herbicidal activity against SETVI” value (Setaria viridis [14]; dosage 320 g a.i./ha) was 100%. For the same compound, the “Herbicidal activity against AMARE” value (Amaranthus retroflexus [5]; dosage 80 g a.i./ha) was 90%, the “Herbicidal activity against AMARE” value (Amaranthus retroflexus [5]; dosage 320 g a.i./ha) was 90% and the chromatographic logP [7] was 3.71. For the same compound, the “Herbicidal activity against ABUTH” value (Abutilon theophrasti [15]) was 100%, the “Herbicidal activity against ECHCG” value (Echinochloa crus-galli; dosage 80 g a.i./ha) was 90% and the “Herbicidal activity against ECHCG” value (Echinochloa crus-galli; dosage 320 g a.i./ha) was 100%. The “Herbicidal activity against POLCO” value (Polygpnum convolvulus [8]; dosage 80 g a.i./ha) was 100%, the “Herbicidal activity against POLCO” value (Polygpnum convolvulus [8]; dosage 320 g a.i./ha) was 100% and the “Herbicidal activity against AVEFA” value (Avena fatua) was 100%. For the same compound, the “Herbicidal activity against VERPE” value (Veronica persica; dosage 80 g a.i./ha) was 100%, the “Herbicidal activity against VERPE” value (Veronica persica; dosage 320 g a.i./ha) was 100% and the “Herbicidal activity against STEME” value (Stellaria media [9]; dosage 80 g a.i./ha) was 100%. For the same compound, the “Herbicidal activity against STEME” value (Stellaria media [9]; dosage 320 g a.i./ha) was 100%, the “Herbicidal activity against ALOMY” value (Alopecurus myosuroides; dosage 80 g a.i./ha) was 90% and the “Herbicidal activity against ALOMY” value (Alopecurus myosuroides; dosage 320 g a.i./ha) was 100%. For the same compound, the “Herbicidal activity against VIOTR” value (Viola tricolor [10]; dosage 80 g a.i./ha) was 100%, the “Herbicidal activity against VIOTR” value (Viola tricolor [10]; dosage 320 g a.i./ha) was 100% and the “Herbicidal activity against SETVI” value (Setaria viridis [11]; dosage 80 g a.i./ha) was 100%. The “Herbicidal activity against SETVI” value (Setaria viridis [11]; dosage 320 g a.i./ha) was 100%, the “Herbicidal activity against AMARE” value (Amaranthus retroflexus [12]; dosage 80 g a.i./ha) was 100% and the “Herbicidal activity against AMARE” value (Amaranthus retroflexus [12]; dosage 320 g a.i./ha) was 100%. The “Herbicidal activity against MATIN” value (Matricaria inodora [13]; dosage 80 g a.i./ha) was 90% and the “Herbicidal activity against MATIN” value (Matricaria inodora [13]; dosage 320 g a.i./ha) was 100%.
